Laboratory results reported in article PMC8371461 (Frontiers in Pharmacology, 2021).

Key:
Test in all cases: kinome scan
Assay type in all cases: binding
MET(M1250T) = biological target: T1, MET(M1250T) (Homo sapiens, UniProt P08581, M1250T); details: 10 µM
T1 construct: purchased DiscoverX (KINOMEscan)

NEK7 = biological target: T2, NEK7 (Homo sapiens, UniProt Q8TDX7); details: 10 µM
T2 construct: purchased DiscoverX (KINOMEscan)

MLK3 = biological target: T3, MLK3 (Homo sapiens, UniProt Q16584); details: 10 µM
T3 construct: purchased DiscoverX (KINOMEscan)

MST1R = biological target: T4, MST1R (Homo sapiens, UniProt Q04912); details: 10 µM
T4 construct: purchased DiscoverX (KINOMEscan)

ERBB4 = biological target: T5, ERBB4 (Homo sapiens, UniProt Q15303); details: 10 µM
T5 construct: purchased DiscoverX (KINOMEscan)
T5 sequence (Q15303 26-1308): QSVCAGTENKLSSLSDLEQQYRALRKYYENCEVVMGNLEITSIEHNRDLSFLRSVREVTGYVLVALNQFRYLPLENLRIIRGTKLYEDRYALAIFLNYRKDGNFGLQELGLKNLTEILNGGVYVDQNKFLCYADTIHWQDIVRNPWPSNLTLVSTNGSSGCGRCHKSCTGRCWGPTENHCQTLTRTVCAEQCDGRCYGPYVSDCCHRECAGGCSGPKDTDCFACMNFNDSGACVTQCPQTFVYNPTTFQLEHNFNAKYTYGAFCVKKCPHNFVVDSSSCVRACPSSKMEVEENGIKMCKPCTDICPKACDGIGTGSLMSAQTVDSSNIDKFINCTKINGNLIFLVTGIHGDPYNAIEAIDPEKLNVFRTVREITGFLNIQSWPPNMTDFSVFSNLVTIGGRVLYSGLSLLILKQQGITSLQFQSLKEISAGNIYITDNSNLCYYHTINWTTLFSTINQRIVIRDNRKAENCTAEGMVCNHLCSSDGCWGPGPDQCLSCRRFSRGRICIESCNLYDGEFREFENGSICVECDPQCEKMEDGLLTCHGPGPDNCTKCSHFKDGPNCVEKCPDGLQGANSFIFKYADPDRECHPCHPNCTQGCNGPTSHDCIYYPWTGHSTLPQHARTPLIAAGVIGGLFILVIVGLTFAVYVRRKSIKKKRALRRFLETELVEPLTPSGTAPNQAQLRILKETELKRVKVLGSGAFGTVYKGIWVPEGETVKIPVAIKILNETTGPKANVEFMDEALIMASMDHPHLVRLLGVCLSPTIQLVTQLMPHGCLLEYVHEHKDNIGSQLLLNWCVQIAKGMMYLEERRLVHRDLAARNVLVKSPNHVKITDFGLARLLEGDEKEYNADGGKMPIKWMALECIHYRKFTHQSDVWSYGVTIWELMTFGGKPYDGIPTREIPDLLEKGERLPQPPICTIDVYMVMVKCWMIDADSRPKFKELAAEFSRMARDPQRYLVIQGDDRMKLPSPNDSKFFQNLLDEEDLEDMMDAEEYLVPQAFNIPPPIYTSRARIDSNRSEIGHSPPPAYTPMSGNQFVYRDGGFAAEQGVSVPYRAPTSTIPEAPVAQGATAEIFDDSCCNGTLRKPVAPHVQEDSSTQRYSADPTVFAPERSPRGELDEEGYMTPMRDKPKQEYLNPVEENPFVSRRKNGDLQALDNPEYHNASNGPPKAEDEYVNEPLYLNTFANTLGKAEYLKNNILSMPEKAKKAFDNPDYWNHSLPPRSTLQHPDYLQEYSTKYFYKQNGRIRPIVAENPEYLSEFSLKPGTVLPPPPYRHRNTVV

MYLK4 = biological target: T6, MYLK4 (Homo sapiens, UniProt Q86YV6); details: 10 µM
T6 construct: purchased DiscoverX (KINOMEscan)

Abelson (Abl) = Abelson (Abl) (Homo sapiens, UniProt P00519); design: T7 phage fusion (kinase-tagged phage); purchased DiscoverX (Ambit Biosciences); host or cells: BL21-derived E. coli (T7 phage); details: read-out: Kinome scan (% of control at 10 µM)
Protocol: The kinome scan analysis was performed using the DiscoverX platform (www.discoverx.com). Briefly, T7 kinase-tagged phage strains are grown in parallel in 24-well or 96-well blocks in a BL21-derived E. coli host for 90 min until lysis. Lysates are centrifuged at 6,000 x g and filtered with a 0.2 µm filter to remove cell debris. Streptavidin-coated magnetic beads are treated with biotinylated kinase ligands for 30 min at room temperature to generate the affinity resin. Bound beads are blocked with excess biotin and washed with blocking buffer (SeaBlock (Pierce), 1% BSA, 0.05% Tween 20, and 1 mM DTT) to remove unbound ligand and reduce nonspecific phage binding. […] The final concentration of test compound is 10 µM. Assay plates are incubated at room temperature with shaking for 1 h. Affinity beads are treated four times with washing buffer (1X PBS, 0.05% Tween 20, and 1 mM DTT) to remove unbound phage. […] Q RT PCR is used to measure the amount of phage in each eluate (which is proportional to the amount of kinase bound). […]
Hits are identified by an ultra-sensitive quantitative PCR detecting the specific DNA tag linked to each kinase (Supplementary Figure S2). The drug is used at a concentration of 10 µM and results are expressed as the percentage of signal (kinase PCR detection) with respect to DMSO control conditions. […]

MET = biological target: T7, MET (Homo sapiens, UniProt P08581); details: 10 µM
T7 construct: purchased DiscoverX (KINOMEscan)

p38-gamma = biological target: T8, p38-gamma (Homo sapiens, UniProt P53778); details: 10 µM
T8 construct: purchased DiscoverX (KINOMEscan)
T8 sequence (P53778 whole entry): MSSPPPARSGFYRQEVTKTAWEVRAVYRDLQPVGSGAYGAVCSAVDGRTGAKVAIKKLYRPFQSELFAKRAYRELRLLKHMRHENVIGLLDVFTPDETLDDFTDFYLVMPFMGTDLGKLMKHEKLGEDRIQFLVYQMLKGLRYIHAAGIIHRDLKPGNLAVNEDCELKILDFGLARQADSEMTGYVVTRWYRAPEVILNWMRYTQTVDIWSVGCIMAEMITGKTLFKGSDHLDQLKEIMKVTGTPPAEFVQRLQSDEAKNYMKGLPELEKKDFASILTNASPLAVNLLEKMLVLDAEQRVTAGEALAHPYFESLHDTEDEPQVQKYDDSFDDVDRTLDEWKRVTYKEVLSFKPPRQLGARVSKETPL

EGFR(L858R) = biological target: T9, EGFR(L858R) (Homo sapiens, UniProt P00533, L858R); details: 10 µM
T9 construct: purchased DiscoverX (KINOMEscan)
T9 sequence (P00533 25-1210 L858R): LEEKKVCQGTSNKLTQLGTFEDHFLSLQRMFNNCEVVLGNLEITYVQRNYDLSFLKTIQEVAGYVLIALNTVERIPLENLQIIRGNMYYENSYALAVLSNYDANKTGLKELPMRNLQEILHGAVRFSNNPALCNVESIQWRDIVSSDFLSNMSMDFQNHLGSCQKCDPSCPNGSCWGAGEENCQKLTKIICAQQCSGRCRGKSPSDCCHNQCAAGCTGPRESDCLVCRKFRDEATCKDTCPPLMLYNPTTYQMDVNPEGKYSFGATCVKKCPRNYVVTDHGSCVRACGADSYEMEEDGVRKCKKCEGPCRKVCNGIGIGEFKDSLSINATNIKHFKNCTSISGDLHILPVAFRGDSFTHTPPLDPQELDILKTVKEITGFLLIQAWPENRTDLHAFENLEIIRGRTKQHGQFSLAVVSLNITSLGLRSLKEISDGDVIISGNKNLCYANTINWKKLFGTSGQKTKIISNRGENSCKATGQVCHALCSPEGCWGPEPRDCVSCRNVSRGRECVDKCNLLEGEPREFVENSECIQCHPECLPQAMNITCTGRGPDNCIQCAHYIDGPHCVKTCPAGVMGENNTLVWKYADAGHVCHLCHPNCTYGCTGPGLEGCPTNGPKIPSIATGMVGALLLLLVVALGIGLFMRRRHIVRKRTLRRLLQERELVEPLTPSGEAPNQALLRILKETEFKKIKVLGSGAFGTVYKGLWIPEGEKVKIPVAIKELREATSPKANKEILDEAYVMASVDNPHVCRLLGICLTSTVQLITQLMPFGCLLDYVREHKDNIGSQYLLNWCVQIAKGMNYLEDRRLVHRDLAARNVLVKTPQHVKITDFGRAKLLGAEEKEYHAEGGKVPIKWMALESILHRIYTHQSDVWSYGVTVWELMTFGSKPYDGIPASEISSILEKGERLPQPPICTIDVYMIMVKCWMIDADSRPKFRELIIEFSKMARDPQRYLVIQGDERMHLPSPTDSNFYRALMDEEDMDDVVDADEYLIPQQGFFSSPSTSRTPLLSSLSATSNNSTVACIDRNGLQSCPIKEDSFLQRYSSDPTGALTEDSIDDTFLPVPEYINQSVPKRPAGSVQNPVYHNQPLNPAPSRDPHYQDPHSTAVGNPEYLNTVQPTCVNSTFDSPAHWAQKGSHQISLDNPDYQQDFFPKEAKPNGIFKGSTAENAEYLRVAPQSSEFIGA

CAMK1G = biological target: T10, CAMK1G (Homo sapiens, UniProt Q96NX5); details: 10 µM
T10 construct: purchased DiscoverX (KINOMEscan)

ASK2 = biological target: T11, ASK2 (Homo sapiens, UniProt O95382); details: 10 µM
T11 construct: purchased DiscoverX (KINOMEscan)

MEK6 = biological target: T12, MEK6 (Homo sapiens, UniProt P52564); details: 10 µM
T12 construct: purchased DiscoverX (KINOMEscan)

ERN1 = biological target: T13, ERN1 (Homo sapiens, UniProt O75460); details: 10 µM
T13 construct: purchased DiscoverX (KINOMEscan)

MARK1 = biological target: T14, MARK1 (Homo sapiens, UniProt Q9P0L2); details: 10 µM
T14 construct: purchased DiscoverX (KINOMEscan)
T14 sequence (Q9P0L2 whole entry): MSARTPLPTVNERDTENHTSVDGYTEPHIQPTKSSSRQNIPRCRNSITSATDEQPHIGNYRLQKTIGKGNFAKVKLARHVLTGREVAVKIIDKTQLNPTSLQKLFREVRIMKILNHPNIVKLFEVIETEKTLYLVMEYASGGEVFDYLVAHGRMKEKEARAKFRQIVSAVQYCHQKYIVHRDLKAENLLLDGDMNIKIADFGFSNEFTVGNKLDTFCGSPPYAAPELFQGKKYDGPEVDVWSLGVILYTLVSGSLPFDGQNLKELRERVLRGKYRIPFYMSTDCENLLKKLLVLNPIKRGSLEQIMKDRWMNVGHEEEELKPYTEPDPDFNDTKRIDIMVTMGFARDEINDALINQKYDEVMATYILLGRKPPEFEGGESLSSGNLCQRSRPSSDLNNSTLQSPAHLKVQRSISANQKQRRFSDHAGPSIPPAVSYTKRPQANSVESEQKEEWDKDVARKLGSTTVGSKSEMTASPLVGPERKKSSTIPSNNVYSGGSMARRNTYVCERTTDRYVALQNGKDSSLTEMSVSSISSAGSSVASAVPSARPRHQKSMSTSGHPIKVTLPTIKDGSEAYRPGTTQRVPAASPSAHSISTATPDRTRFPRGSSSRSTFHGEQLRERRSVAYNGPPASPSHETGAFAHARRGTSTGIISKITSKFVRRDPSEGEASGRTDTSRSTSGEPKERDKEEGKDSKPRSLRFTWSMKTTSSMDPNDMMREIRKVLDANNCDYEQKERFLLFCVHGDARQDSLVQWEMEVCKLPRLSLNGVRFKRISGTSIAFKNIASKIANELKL

QSK = biological target: T15, QSK (Homo sapiens, UniProt Q9Y2K2); details: 10 µM
T15 construct: purchased DiscoverX (KINOMEscan)

SNARK = biological target: T16, SNARK (Homo sapiens, UniProt Q9H093); details: 10 µM
T16 construct: purchased DiscoverX (KINOMEscan)

PIK3C2G = biological target: T17, PIK3C2G (Homo sapiens, UniProt O75747)
T17 construct: purchased DiscoverX (KINOMEscan)
T17 sequence (O75747 whole entry): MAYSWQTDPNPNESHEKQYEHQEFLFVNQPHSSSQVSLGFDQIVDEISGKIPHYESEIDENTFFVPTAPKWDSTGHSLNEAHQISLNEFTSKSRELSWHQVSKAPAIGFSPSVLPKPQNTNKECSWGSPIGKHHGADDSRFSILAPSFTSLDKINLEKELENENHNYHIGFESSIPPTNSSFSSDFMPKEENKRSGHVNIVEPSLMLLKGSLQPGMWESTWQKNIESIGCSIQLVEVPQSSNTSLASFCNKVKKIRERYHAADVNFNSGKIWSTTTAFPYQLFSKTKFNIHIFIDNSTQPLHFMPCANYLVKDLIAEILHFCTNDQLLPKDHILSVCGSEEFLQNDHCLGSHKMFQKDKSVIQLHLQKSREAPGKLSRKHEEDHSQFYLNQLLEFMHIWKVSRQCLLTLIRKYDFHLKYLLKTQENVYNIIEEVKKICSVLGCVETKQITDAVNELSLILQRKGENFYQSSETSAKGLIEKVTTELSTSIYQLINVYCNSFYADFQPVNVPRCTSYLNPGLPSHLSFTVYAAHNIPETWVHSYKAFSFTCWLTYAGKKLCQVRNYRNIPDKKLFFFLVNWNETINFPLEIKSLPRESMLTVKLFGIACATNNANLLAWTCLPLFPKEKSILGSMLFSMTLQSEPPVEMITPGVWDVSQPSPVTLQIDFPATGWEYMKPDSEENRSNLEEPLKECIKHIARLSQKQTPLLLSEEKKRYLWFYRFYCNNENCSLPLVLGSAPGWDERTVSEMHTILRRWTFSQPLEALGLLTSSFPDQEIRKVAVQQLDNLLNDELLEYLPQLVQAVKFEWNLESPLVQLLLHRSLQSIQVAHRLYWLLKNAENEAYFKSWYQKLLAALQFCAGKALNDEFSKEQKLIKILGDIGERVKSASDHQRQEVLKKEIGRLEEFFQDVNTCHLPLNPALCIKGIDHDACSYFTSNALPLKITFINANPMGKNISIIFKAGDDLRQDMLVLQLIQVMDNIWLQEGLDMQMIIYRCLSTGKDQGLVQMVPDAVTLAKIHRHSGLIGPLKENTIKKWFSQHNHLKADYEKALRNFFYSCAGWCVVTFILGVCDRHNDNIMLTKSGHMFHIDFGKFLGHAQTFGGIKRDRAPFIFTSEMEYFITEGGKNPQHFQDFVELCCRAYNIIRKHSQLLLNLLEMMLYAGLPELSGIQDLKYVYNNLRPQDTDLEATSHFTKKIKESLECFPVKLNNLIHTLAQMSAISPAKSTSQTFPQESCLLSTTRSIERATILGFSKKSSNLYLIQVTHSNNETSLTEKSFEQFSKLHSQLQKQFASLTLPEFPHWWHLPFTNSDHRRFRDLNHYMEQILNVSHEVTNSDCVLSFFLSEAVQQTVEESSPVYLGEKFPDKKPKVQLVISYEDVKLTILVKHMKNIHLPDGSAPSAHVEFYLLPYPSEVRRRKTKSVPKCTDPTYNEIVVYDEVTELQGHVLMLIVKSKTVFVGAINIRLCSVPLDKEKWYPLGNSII

MLK2 = biological target: T18, MLK2 (Homo sapiens, UniProt Q02779); details: 10 µM
T18 construct: purchased DiscoverX (KINOMEscan)

IRAK1 = biological target: T19, IRAK1 (Homo sapiens, UniProt P51617); details: 10 µM
T19 construct: purchased DiscoverX (KINOMEscan)

HIPK1 = biological target: T20, HIPK1 (Homo sapiens, UniProt Q86Z02); details: 10 µM
T20 construct: purchased DiscoverX (KINOMEscan)

STK16 = biological target: T21, STK16 (Homo sapiens, UniProt O75716); details: 10 µM
T21 construct: purchased DiscoverX (KINOMEscan)

CIT = biological target: T22, CIT (Homo sapiens, UniProt O14578); details: 10 µM
T22 construct: purchased DiscoverX (KINOMEscan)

GRK1 = biological target: T23, GRK1 (Homo sapiens, UniProt Q15835); details: 10 µM
T23 construct: purchased DiscoverX (KINOMEscan)

OSR1 = biological target: T24, OSR1 (Homo sapiens, UniProt O95747); details: 10 µM
T24 construct: purchased DiscoverX (KINOMEscan)

SYK = biological target: T25, SYK (Homo sapiens, UniProt P43405); details: 10 µM
T25 construct: purchased DiscoverX (KINOMEscan)

KIT(L576P) = biological target: T26, KIT(L576P) (Homo sapiens, UniProt P10721, L576P); details: 10 µM
T26 construct: purchased DiscoverX (KINOMEscan)

FGFR3 = biological target: T27, FGFR3 (Homo sapiens, UniProt P22607); details: 10 µM
T27 construct: purchased DiscoverX (KINOMEscan)

EPHB4 = biological target: T28, EPHB4 (Homo sapiens, UniProt P54760); details: 10 µM
T28 construct: purchased DiscoverX (KINOMEscan)

Compound: Nc1ccc(N=Nc2ccccc2)c(N)n1 [phenazopyridine, 2,6-diamino-3-(phenylazo)pyridine]
- kinase inhibition (MET(M1250T)): 83
- kinase inhibition (NEK7): 100
- kinase inhibition (MLK3): 100
- kinase inhibition (MST1R): 94
- kinase inhibition (ERBB4): 78
- kinase inhibition (MYLK4): 87
- remaining binding at 10 µM (Abelson (Abl)): 48%
- kinase inhibition (MET): 100
- kinase inhibition (p38-gamma): 100
- kinase inhibition (EGFR(L858R)): 100
- kinase inhibition (CAMK1G): 88
- kinase inhibition (ASK2): 83
- kinase inhibition (MEK6): 95
- kinase inhibition (ERN1): 82
- kinase inhibition (MARK1): 95
- kinase inhibition (QSK): 94
- kinase inhibition (SNARK): 87
- remaining activity (PIK3C2G; 10 µM): 24
- remaining binding at 10 µM (PIK3C2G; read-out: % Of control): 24%
- kinase inhibition (MLK2): 100
- kinase inhibition (IRAK1): 100
- kinase inhibition (HIPK1): 58
- kinase inhibition (STK16): 76
- kinase inhibition (CIT): 72
- remaining binding (% of control) (GRK1): 100
- kinase inhibition (OSR1): 100
- kinase inhibition (SYK): 100
- kinase inhibition (KIT(L576P)): 44
- kinase inhibition (FGFR3): 91
- kinase inhibition (EPHB4): 95
